Experimental data published in patent publication US7662814B2, “4-aminothieno[2,3-d]pyrimidine-6-carbonitrile derivatives as PDE7 inhibitors” (Laboratorios Almirall, S.A., priority 2003, dated 2010).
pIC50: −log10 of the molar value.

Legend:
PDE7 = PDE7 Assay Procedure ([3H]-cAMP SPA); format: biochemical; settings: PDE7 inhibition, 15 nM 3',5'[3H]-cAMP, 1 hour at room temperature
Method: All compounds are resuspended in DMSO at a stock concentration of 10 mM. […] All dilutions are performed in 96 well plates.
For each reaction, 10 microliters of the diluted compounds are poured into “low binding” assay plates. 80 microliters of a reaction mixture containing 50 mM Tris pH 7.5, 8.3 mM MgCl2, 1.7 mM EGTA, and 15 nM 3′,5′[3H]-cAMP (around 150000 dpm) are added to each well. The reaction is initiated by adding 10 microliters of a solution containing PDE7 to the reaction mixture. The plate is then incubated under stirring for 1 hour at room temperature. After incubation the reaction is stopped with 50 microlitres (0.89 mg) of PDE SPA beads (Amersham Pharmacia Biotech RPNQ0150), and the resulting mixture is allowed to settle for 20 minutes before counting in a microtitre plate counter.

pIC50 (PDE7): > 6.00 | melting point: 194 to 196 °C
SMILES: COc1ccc(-c2nc(N3CCOCC3)c3c(C)c(C#N)sc3n2)cc1OC [Example 31, 2-(3,4-Dimethoxyphenyl)-5-methyl-4-morpholin-4-ylthieno[2,3-d]pyrimidine-6-carbonitrile]
